Assay results as given in US7456152B2, “Peptide inhibitors of thrombin as potent anticoagulants” (priority 2004, dated 2008).
Where “and” joins values, the source holds several entries; their conditions need not be identical. Equal values may be shown once. Read-outs that look alike come from different tables or passages of the source. Ends that are not written are not given here.

Legend:
[1] = target: T1, human α-thrombin (Homo sapiens, UniProt P00734); settings: data from the published reports of DiMaio and Maraganore; read-out: Clotting assay, 37° C. (IC50); cited from earlier work
T1 construct: Bovine and human α-thrombins were supplied by Haematologic Technologies Inc (VT, USA); cleaved off efficiently by thrombin to generate the free N-terminus of the A-chain of human thrombin; purchased Haematologic Technologies Inc (VT, USA)

[2] = target: T1, human α-thrombin; settings: data from the published reports of DiMaio and Maraganore; read-out: Amidolytic assay (Ki); cited from earlier work
[3] = target: T1, human α-thrombin; assay: Inhibition of the amidolytic activity of thrombin (Tos-Gly-Pro-Arg-p-nitroanilide hydrolysis); assay type: biochemical
Protocol: Kinetics of thrombin-catalyzed hydrolysis of the chromogenic substrate Tos-Gly-Pro-Arg-p-nitroanilide were followed by absorbance at 405 nm on a Spectramax plate reader thermostated at either 25° C. or 37° C. according to the method of Maragnore et al (supra). The concentrations of Tos-Gly-Pro-Arg-p-nitroanilide ranged from 2 to 400 μM. Initial rates were calculated under conditions of <15% hydrolysis of the total substrate. The KM and Vmax values were calculated accordingly and kcat values were determined by dividing Vmax by the enzyme (thrombin) concentration. The inhibition assays were performed in the clotting buffer with a certain fixed concentration of α-thrombin (˜0.3 nM) such that linear progress curves were achieved within at least 15 min in the absence of the inhibition. The total volume of the solution was fixed at 200 μl. Reactions were initiated by addition of the chromogenic substrate to the wells containing thrombin and a certain concentration of the peptide inhibitors premixed for less than 2 min. Alternatively, the substrate was first mixed with the peptide inhibitor and the total volume was adjusted to 120 μL using the clotting buffer. Eighty microliters of human α-thrombin in the clotting buffer (˜0.3 nM final concentration) was added to initiate the reaction. The concentration of the peptides ranged from 0.5 nM to 10 μM. Kinetics data from initial rate experiments were used to construct Lineweaver-Burke plot; i.e. the relationship of (substrate concentration)^−1 versus (initial velocity)^−1 which. were analysed by linear regression with MicroCal Origin 4.1 program (MicroCal, MD) or using the GraphPad Prism software. The Ki values of the inhibitors were determined using the equation: Ki=[I]/{(SL0/SL1)−1}, where
[I] is the inhibitor concentration,
SL0 is the slope of the reaction in the absence of inhibitors, and
SL1 is the slope of the reaction in the presence of the inhibitor.
Alternatively, Dixon plots of inverse velocity versus the inhibitor concentrations were generated with the Sigmaplot™ software. Every Dixon plot contained an array of data corresponding to different substrate concentrations and the Ki values were determined from the intersections. Following Peptide Cleavage by HPLC

[4] = target: T1, human α-thrombin; assay: Peptide cleavage by thrombin followed by HPLC; assay type: biochemical
Protocol: Previously reported methods (DiMaio, J., Gibbs, B., Munn; D., Lefebvre, J., Ni, F., and Konishi, Y. (1990) J. Biol. Chem. 265, 21698-21703; and Witting, J. I., Bourdon, P., Brezniak, D. V., Maraganore, J. M., and Fenton, J. W. (1992) Biochem. J. 283 (Pt 3), 737-743) were employed with some modifications (as detailed in the Results section and FIG. 18) to determine whether some bivalent peptides are cleaved by thrombin. Each peptide was dissolved in the clotting buffer at a final concentration of 2.0 μM and incubated at 25° C. with or without 2 μM of human α-thrombin for up to 40 hrs. The samples were then boiled for 2 min to stop the reaction, and centrifuged. The supernatant was acidified by addition of concentrated acetic acid before being loaded on an analytical HPLC C18 column and eluted with a linear gradient of 0%-50% (v/v) acetonitrile.
(§1) The FN22 peptide was incubated with thrombin at 25° C. in order to investigate the stability of the peptide in complex with thrombin. The progress of peptide cleavage by thrombin was monitored and analyzed through the HPLC profiles of the FN22 peptide in the absence or presence of thrombin for different incubation times. […] In the clotting assay, the FN22 peptide at a concentration of 400 nM was premixed with thrombin for different times of incubation before initiating the clotting reaction. […]

[5] = target: T1, human α-thrombin; assay: Stability of peptides pre-incubated with thrombin, read by the clotting assay; assay type: biochemical; settings: 30 hrs of incubation, 25° C.
Protocol: as §1, with “reaction. The cleavage of the peptide by thrombin is indicated by a reduced clotting time with increasing incubation times.” for “reaction.”
In FIG. 18C, curve (1) represents the clotting assay curve recorded for a freshly-prepared stock solution of thrombin in the absence of peptide inhibitors, curves (2) and (3) represent the clotting curves recorded under the same condition as in (1) except that thrombin stood at 4° C. and 25° C., respectively, for 30 hrs, curves (4) and (5) represent the clotting curves recorded under the same condition as that in (3) except that the FN22 peptide (400 nM, curve 4) and FD22 (100 nM, curve 5) were mixed with thrombin during incubation, and curves (6) and (7) represent the clotting curves recorded under the same condition as that in (3) except that FN22 (400 nM, curve 6) and FD22 (100 nM, curve 7) were freshly-prepared intact peptides. […]

[6] = target: T1, human α-thrombin; assay: Clotting assay: fibrinogen clotting by human thrombin, concentration doubling the clotting time (DCT) = IC50; assay type: biochemical
Protocol: The clotting assays were carried out by use of the protocols described previously (DiMaio, J., Gibbs, B., Munn, D., Lefebvre, J., Ni, F., and Konishi, Y. (1990) J. Biol. Chem. 265, 21698-21703; and Witting, J. I., Bourdon, P., Brezniak, D. V., Maraganore, J. M., and Fenton, J. W. (1992) Biochem. J. 283 (Pt 3), 737-743) The assay employs bovine plasma fibrinogen dissolved at 0.1% in 50 mM Tris-Cl, 100 mM NaCl, 0.1% PEG-8000 at pH 7.6 (i.e. the clotting buffer). Each assay mixture contained a certain concentration of the peptide, and the reaction was started by the addition of human thrombin to a final concentration of 0.1 NIH unit/ml. Optical absorbance of the assay mixtures was measured at 420 nm and 37° C. using the Spectramax™ plate reader. The onset clotting time was determined as an intersection of the baseline and the initial slope of the O.D. change as a result of fibrin clot formation. The concentration of a peptide needed to double the clotting time (DCT) was defined as IC50. Peptide concentrations were determined by comparing the O.D.280 values of peptide stock solutions in the clotting buffer (vide supra) with the predicted extinction coefficient for each peptide (Gill, S. C. and von Hippel, P. H. (1989) Anal. Biochem. 182, 319-326).
The peptide concentration for doubling the clotting time (DCT) was defined as the IC50 value.

[7] = target: T1, human α-thrombin; assay: Digestion of 15N-labelled FD22 at the Arg(P1)-Pro(P1′) bond by human α-thrombin; assay type: biochemical; settings: ~1 mM 15N-labelled peptide, 5 μM human α-thrombin
Protocol: After the peptide was incubated with thrombin at 25° C. for 40 hrs, around 90% of the intact FD22 peptide still remained as shown by use of HPLC analysis (FIG. 18B). In the clotting assay, the FD22 peptide at 100 nM was premixed with thrombin for different times before initiation of clotting. The peptide thus prepared had the clotting time reduced by only 12% after 30 hrs of incubation with thrombin. Indeed, the ^15N-labelled FD22 with a concentration of ˜1 mM (FIG. 16D) was digested completely at the Arg(P1)-Pro(P1′) bond by a 5 μM concentration of human α-thrombin only after more than 60 hrs of incubation.

[8] = Amidolytic assay, 25° C. (Ki, nM), Tos-Gly-Pro-Arg-pNA, 25° C.

For dFPRPQSHNDGDFEEIPEEYL [P53^(e)], the IC50 [1] is listed as 4.1 ± 0.8 nM and the Ki [2] is listed as 2.8 ± 0.9 nM.
With `CC[C@H](C)[C@H](NC(=O)[C@H](CCC(=O)O)NC(=O)[C@H](CCC(=O)O)NC(=O)[C@H](Cc1ccccc1)NC(=O)[C@H](CC(=O)O)NC(=O)CNC(=O)[C@H](CC(=O)O)NC(=O)[C@H](CC(N)=O)NC(=O)[C@H](Cc1c[nH]cn1)NC(=O)[C@H](CO)NC(=O)[C@H](CCC(N)=O)NC(=O)[C@@H]1CCCN1C(=O)[C@H](CCCNC(=N)N)NC(=O)[C@@H]1CCCN1C(=O)[C@H](CC(N)=O)NC(=O)[C@@H](N)Cc1ccccc1)C(=O)N1CCC[C@H]1C(=O)N[C@@H](CCC(=O)O)C(=O)N[C@@H](CCC(=O)O)C(=O)N[C@@H](Cc1ccc(O)cc1)C(=O)N[C@@H](CC(C)C)C(=O)N[C@@H](CCC(N)=O)C(=O)O` [FN22] the Ki [3, 8] was 80 ± 10 nM, the “kcat in the presence of the peptide” value ([3]; FN22 at 80 μM, 130 without peptide) was 115 s⁻¹ and the mode of inhibition ([3]; substrate concentrations near the KM) was “competitive”. The “peptide cleaved by thrombin” value ([4]; 2.0 μM peptide, 2.0 μM human α-thrombin, 25° C., after 40 hours) was “about 30%” and the “reduction of clotting time compared to the control” value ([5]; peptide 400 nM premixed with thrombin) was 41%.
In the case of `CC[C@H](C)[C@H](NC(=O)[C@H](CCC(=O)O)NC(=O)[C@H](CCC(=O)O)NC(=O)[C@H](Cc1ccccc1)NC(=O)[C@H](CC(=O)O)NC(=O)CNC(=O)[C@H](CC(=O)O)NC(=O)[C@H](CC(N)=O)NC(=O)[C@H](Cc1c[nH]cn1)NC(=O)[C@H](CO)NC(=O)[C@H](CCC(N)=O)NC(=O)[C@@H]1CCCN1C(=O)[C@H](CCCNC(=N)N)NC(=O)[C@@H]1CCCN1C(=O)[C@H](CC(=O)O)NC(=O)[C@@H](N)Cc1ccccc1)C(=O)N1CCC[C@H]1C(=O)N[C@@H](CCC(=O)O)C(=O)N[C@@H](CCC(=O)O)C(=O)N[C@@H](Cc1ccc(O)cc1)C(=O)N[C@@H](CC(C)C)C(=O)N[C@@H](CCC(N)=O)C(=O)O` [FD22], the IC50 [6] is reported as ~50 nM and 45 nM and ~45 nM, the Ki [3, 8] is reported as ~55 nM and the intact peptide remaining ([4]; incubated with thrombin at 25° C. for 40 hrs) is reported as “around 90%”. For the same compound, the “reduction of clotting time” value ([5]; peptide 100 nM premixed with thrombin) was 12% and the “incubation time until complete digestion at the Arg(P1)-Pro(P1′) bond” value [7] was “more than 60 hrs”.
For `CC[C@H](C)[C@H](NC(=O)[C@H](CCC(=O)O)NC(=O)[C@H](CCC(=O)O)NC(=O)[C@H](Cc1ccccc1)NC(=O)[C@H](CC(=O)O)NC(=O)CNC(=O)[C@H](CC(=O)O)NC(=O)[C@H](CC(N)=O)NC(=O)[C@H](Cc1c[nH]cn1)NC(=O)[C@H](CCCNC(=N)N)NC(=O)[C@H](CCC(N)=O)NC(=O)[C@@H]1CCCN1C(=O)[C@H](CCCNC(=N)N)NC(=O)[C@@H]1CCCN1C(=O)[C@H](CC(=O)O)NC(=O)[C@@H](N)Cc1ccccc1)C(=O)N1CCC[C@H]1C(=O)N[C@@H](CCC(=O)O)C(=O)N[C@@H](CCC(=O)O)C(=O)N[C@@H](Cc1ccc(O)cc1)C(=O)N[C@@H](CC(C)C)C(=O)N[C@@H](CCC(N)=O)C(=O)O` [FD22-R], the IC50 [6] was ~32 nM and 32 nM and the Ki [3, 8] was 45 ± 6 nM.
WDPRPQRHNDGDYEPIPEEYLQ [WD22-R-YP] gave an IC50 [6] of 4.5 ± 2 nM and a Ki [3] of 358 ± 23 nM.
In the case of `CC[C@H](C)[C@H](NC(=O)[C@H](CCC(N)=O)NC(=O)[C@@H]1CCCN1C(=O)[C@H](CCCNC(=N)N)NC(=O)[C@@H]1CCCN1C(=O)[C@H](CC(N)=O)NC(=O)[C@@H](N)Cc1ccccc1)C(=O)N[C@@H](Cc1c[nH]cn1)C(=O)N[C@@H](CC(N)=O)C(=O)N[C@@H](CC(=O)O)C(=O)NCC(=O)N[C@@H](CC(=O)O)C(=O)N[C@@H](Cc1ccccc1)C(=O)N[C@@H](CCC(=O)O)C(=O)N[C@@H](CCC(=O)O)C(=O)N[C@H](C(=O)N1CCC[C@H]1C(=O)N[C@@H](CCC(=O)O)C(=O)N[C@@H](CCC(=O)O)C(=O)N[C@@H](Cc1ccc(O)cc1)C(=O)N[C@@H](CC(C)C)C(=O)N[C@@H](CCC(N)=O)C(=O)O)[C@@H](C)CC` [FN22-I], the IC50 [6] is reported as 45 nM and the Ki [3, 8] is reported as 360 nM.
